Assay [1] has as its target T1, Tyrosine-protein kinase BTK (Homo sapiens, UniProt Q06187). Nature of the assay: Inhibition of BTK (unknown origin) using poly(Glu, Tyr) 4:1 as substrate incubated in presence of [gamma33P]ATP by image analyser.
The target of assay [2] is T1, Tyrosine-protein kinase BTK. Nature of the assay: Inhibition of BTK in human Ramos cells assessed as reduction in anti-human IgM F(ab)2-induced ERK phosphorylation preincubated for 10 mins followed by stimulated with antihuman IgM F(ab)2 incubated for 60 mins by Western blot analysis. Format: cell-based. Conditions: time 70.0 min.
Assay [3] shares this target. Put plainly: Inhibition of BTK in human Ramos cells assessed as reduction in anti-human IgM F(ab)2-induced BCR mediated PLCgamma2 phosphorylation preincubated for 10 mins followed by stimulated with antihuman IgM F(ab)2 incubated for 60 mins by Western blot analysis. Format: cell-based. Conditions: time 70.0 min. (In general: In western blotting, separated proteins are transferred to a membrane and probed.)

Assay [4] has the same target. Nature of the assay: Inhibition of BTK in human Ramos cells assessed as reduction in anti-human IgM F(ab)2-induced BTK phosphorylation at Tyr223 residue preincubated for 10 mins followed by stimulated with antihuman IgM F(ab)2 incubated for 60 mins by Western blot analysis. Format: cell-based. Conditions: time 1.0 hrs.
For assay [5] the target is unchanged. Put plainly: Inhibition of BTK in human Ramos cells assessed as reduction in anti-human IgM F(ab)2-induced BTK phosphorylation at Tyr551 residue preincubated for 10 mins followed by stimulated with antihuman IgM F(ab)2 incubated for 60 mins by Western blot analysis. Format: cell-based. Conditions: time 70.0 min.

Six molecules from ChEMBL document CHEMBL4765406 (Eur J Med Chem, 2020) can be followed below.

pIC50: −log10 of the molar value. Calls of active or inactive are those of the source. The rule behind the calls is not given here. Where only a bound is given, the exact number is not on record here.

T1 sequence (Q06187 whole entry): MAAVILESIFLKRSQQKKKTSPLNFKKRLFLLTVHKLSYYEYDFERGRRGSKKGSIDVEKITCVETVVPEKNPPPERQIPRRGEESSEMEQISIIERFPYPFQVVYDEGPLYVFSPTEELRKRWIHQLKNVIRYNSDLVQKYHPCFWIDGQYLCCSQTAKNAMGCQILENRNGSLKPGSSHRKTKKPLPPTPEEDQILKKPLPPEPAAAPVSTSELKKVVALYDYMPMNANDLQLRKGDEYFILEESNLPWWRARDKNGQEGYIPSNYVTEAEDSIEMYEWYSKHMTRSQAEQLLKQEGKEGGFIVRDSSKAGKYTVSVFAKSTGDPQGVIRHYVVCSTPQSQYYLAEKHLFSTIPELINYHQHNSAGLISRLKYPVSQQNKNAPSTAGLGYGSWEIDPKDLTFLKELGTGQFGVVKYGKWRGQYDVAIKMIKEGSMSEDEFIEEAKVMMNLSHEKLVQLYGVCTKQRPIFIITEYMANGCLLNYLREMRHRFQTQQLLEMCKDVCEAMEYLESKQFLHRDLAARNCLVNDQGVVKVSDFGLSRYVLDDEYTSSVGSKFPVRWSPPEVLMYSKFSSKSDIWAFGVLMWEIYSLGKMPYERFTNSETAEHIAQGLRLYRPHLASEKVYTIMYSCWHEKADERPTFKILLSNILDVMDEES

For the molecule `c1nc2c(Nc3ccc(N4CCOCC4)cc3)nc(-c3ccc4cn[nH]c4c3)nc2[nH]1`, the pIC50 in assay [1] is 7.14. As to `c1nc2c(Nc3ccc(N4CCOCC4)cc3)nc(-c3ccc4cn[nH]c4c3)cc2[nH]1`, in assay [1], the pIC50 is 6.43. Also, the inhibition entry in assay [2] was “inactive”. As to `c1cc(N2CCOCC2)ccc1Nc1nc(-c2ccc3cn[nH]c3c2)nc2[nH]ncc12`, the pIC50 in assay [1] is 6.78.

As for `c1cc2nc(-c3ccc4cn[nH]c4c3)nc(Nc3ccc(N4CCOCC4)cc3)c2[nH]1`, the pIC50 in assay [1] is < 4.70.

Consider `c1nc2c(Nc3ccc(N4CCOCC4)cc3)cc(-c3ccc4cn[nH]c4c3)nc2[nH]1`, for which the pIC50 in assay [1] was 5.84. On to `c1cn2cc(-c3ccc4cn[nH]c4c3)nc(Nc3ccc(N4CCOCC4)cc3)c2n1` [ENTOSPLETINIB], for which the pIC50 in assay [1] was 6.10. Moreover, the inhibition entry in assay [3], in assay [4], in assay [5] and in assay [2] was “Active” each time.

Usually pIC50 stands for −log10 of the IC50, conventionally taken in molar units.
